Measurements from patent US20210395248A1, “INHIBITORS OF HUMAN IMMUNODEFICIENCY VIRUS REPLICATION” (ViiV HEALTHCARE UK (NO.5) LIMITED, priority 2018, published 2021).

Legend:
[1] = test system: recombinant NL4-3 virus (Renilla luciferase reporter) in MT-2 cells; test: HIV cell culture assay (antiviral activity, luciferase readout in infected MT-2 cells); format: cell-based; conditions: NL43
Method: HIV cell culture assay—MT-2 cells, 293T cells and the proviral DNA clone of NL4-3 virus were obtained from the NIH AIDS Research and Reference Reagent Program. MT-2 cells were propagated in RPMI 1640 media supplemented with 10% heat inactivated fetal bovine serum (FBS), […]. The 293T cells were propagated in DMEM media supplemented with 10% heat inactivated FBS, […]. A recombinant NL4-3 proviral clone, in which a section of the nef gene was replaced with the Renilla luciferase gene, was used to make the reference virus used in these studies. The recombinant virus was prepared through transfection of the recombinant NL4-3 proviral clone into 293T cells using Transit-293 Transfection Reagent from Mirus Bio LLC (Madison, Wis.). Supernatent was harvested after 2-3 days and the amount of virus present was titered in MT-2 cells using luciferase enzyme activity as a marker by measuring luciferase enzyme activity. Luciferase was quantitated using the EnduRen Live Cell Substrate from Promega (Madison, Wis.). Antiviral activities of compounds toward the recombinant virus were quantified by measuring luciferase activity in MT-2 cells infected for 4-5 days with the recombinant virus in the presence of serial dilutions of the compound.
The 50% effective concentration (EC50) was calculated by using the exponential form of the median effect equation where (Fa)=1/[1+(EC50/drug conc.)m] (Johnson V A, Byington RT. Infectivity Assay. In Techniques in HIV Research, ed. Aldovini A, Walker B D. 71-76. New York: Stockton Press. 1990). The 50% inhibitory concentration (EC50) was calculated by using the exponential form of the median effect equation where percent inhibition=1/[1+(EC50/drug concentration)m], where m is a parameter that reflects the slope of the concentration-response curve.

[2] = Compound cytotoxicity, XTT-based colorimetric assay; format: cell-based; conditions: human; uninfected MT2 cells, day 4, XTT; read-out: CC50
Method: Compound cytotoxicity and the corresponding CC50 values were determined using the same protocol as described in the antiviral assay except that uninfected cells were used. Cytotoxicity was assessed on day 4 in uninfected MT2 cells by using a XTT (2,3-bis [2-Methoxy-4-nitro-5-sulfophenyl]-2H-tetrazolium-5-carboxyanilide inner salt)-based colorimetric assay (Sigma-Aldrich, St Louis, Mo.).

SMILES	EC50 [1] [pM]	CC50 at 4 days [2] [pM]
Cn1nc(NS(C)(=O)=O)c2c(Cl)ccc(-n3c([C@H](Cc4cc(F)cc(F)c4)NC(=O)Cn4nc(C(F)F)c5c4C(F)(F)[C@@H]4C[C@H]54)nc4nc(N5CCO[C@H](C(F)(F)F)C5)ccc4c3=O)c21 (atropisomer, axis not shown; (P)) [Example 11, N—((S)-1-((3P)-3-(4-chloro-1-methyl-3-(methylsulfonamido)-1H-indazol-7-yl)-4-oxo-7-((S)-2-(trifluoromethyl)morpholino)-3,4-dihydropyrido[2,3-d]pyrimidin-2-yl)-2-(3,5-difluorophenyl)ethyl)-2-((3bS,4aR)-3-(difluoromethyl)-5,5-difluoro-3b,4,4a,5-tetrahydro-1H-cyclopropa[3,4]cyclopenta[1,2-c]pyrazol-1-yl)acetamide]	19	> 100000
Cn1nc(NS(C)(=O)=O)c2c(Cl)ccc(-n3c([C@H](Cc4cc(F)cc(F)c4)NC(=O)Cn4nc(C(F)F)c5c4C(F)(F)[C@@H]4C[C@H]54)nc4nc(N5CCO[C@@H](C(F)(F)F)C5)ccc4c3=O)c21 (atropisomer, axis not shown; (P)) [Example 12, N—((S)-1-((3P)-3-(4-chloro-1-methyl-3-(methylsulfonamido)-1H-indazol-7-yl)-4-oxo-7-((R)-2-(trifluoromethyl)morpholino)-3,4-dihydropyrido[2,3-d]pyrimidin-2-yl)-2-(3,5-difluorophenyl)ethyl)-2-((3bS,4aR)-3-(difluoromethyl)-5,5-difluoro-3b,4,4a,5-tetrahydro-1H-cyclopropa[3,4]cyclopenta[1,2-c]pyrazol-1-yl)acetamide]	20	> 100000
Cn1nc(NS(C)(=O)=O)c2c(Cl)ccc(-n3c([C@H](Cc4cc(F)cc(F)c4)NC(=O)Cn4nc(C(F)F)c5c4C(F)(F)[C@@H]4C[C@H]54)nc4nc(N(CCC(F)(F)F)C5CCC5)ccc4c3=O)c21 (atropisomer, axis not shown; (P)) [Example 13, N—((S)-1-((3P)-3-(4-chloro-1-methyl-3-(methylsulfonamido)-1H-indazol-7-yl)-7-(cyclobutyl(3,3,3-trifluoropropyl)amino)-4-oxo-3,4-dihydropyrido[2,3-d]pyrimidin-2-yl)-2-(3,5-difluorophenyl)ethyl)-2-((3bS,4aR)-3-(difluoromethyl)-5,5-difluoro-3b,4,4a,5-tetrahydro-1H-cyclopropa[3,4]cyclopenta[1,2-c]pyrazol-1-yl)acetamide]	68	> 100000
Cn1nc(NS(C)(=O)=O)c2c(Cl)ccc(-n3c([C@H](Cc4cc(F)cc(F)c4)NC(=O)Cn4nc(C(F)F)c5c4C(F)(F)[C@@H]4C[C@H]54)nc4nc(N(CCC(F)(F)F)CC5CC5)ccc4c3=O)c21 (atropisomer, axis not shown; (P)) [Example 14, N—((S)-1-((3P)-3-(4-chloro-1-methyl-3-(methylsulfonamido)-1H-indazol-7-yl)-7-((cyclopropylmethyl)(3,3,3-trifluoropropyl)amino)-4-oxo-3,4-dihydropyrido[2,3-d]pyrimidin-2-yl)-2-(3,5-difluorophenyl)ethyl)-2-((3bS,4aR)-3-(difluoromethyl)-5,5-difluoro-3b,4,4a,5-tetrahydro-1H-cyclopropa[3,4]cyclopenta[1,2-c]pyrazol-1-yl)acetamide]	110	> 100000
C[C@@H]1CN(c2ccc3c(=O)n(-c4ccc(Cl)c5c(NS(C)(=O)=O)nn(C)c45)c([C@H](Cc4cc(F)cc(F)c4)NC(=O)Cc4ccn(C5CC5)n4)nc3n2)C[C@H](C)O1 (atropisomer, axis not shown; (P)) [Example 15, N—((S)-1-((3P)-3-(4-chloro-1-methyl-3-(methylsulfonamido)-1H-indazol-7-yl)-7-((2S,6R)-2,6-dimethylmorpholino)-4-oxo-3,4-dihydropyrido[2,3-d]pyrimidin-2-yl)-2-(3,5-difluorophenyl)ethyl)-2-(1-cyclopropyl-1H-pyrazol-3-yl)acetamide]	110	> 100000
C[C@@H]1CN(c2ccc3c(=O)n(-c4ccc(Cl)c5c(NS(C)(=O)=O)nn(C)c45)c([C@H](Cc4cc(F)cc(F)c4)NC(=O)Cn4ccc(C5CC5)n4)nc3n2)C[C@H](C)O1 (atropisomer, axis not shown; (P)) [Example 16, N—((S)-1-((3P)-3-(4-chloro-1-methyl-3-(methylsulfonamido)-1H-indazol-7-yl)-7-((2S,6R)-2,6-dimethylmorpholino)-4-oxo-3,4-dihydropyrido[2,3-d]pyrimidin-2-yl)-2-(3,5-difluorophenyl)ethyl)-2-(3-cyclopropyl-1H-pyrazol-1-yl)acetamide]	200	> 500000
C[C@@H]1CN(c2ccc3c(=O)n(-c4ccc(Cl)c5c(NS(C)(=O)=O)nn(CC(F)(F)F)c45)c([C@H](Cc4cc(F)cc(F)c4)NC(=O)Cn4ccc(C5CC5)n4)nc3n2)C[C@H](C)O1 (atropisomer, axis not shown; (P)) [Example 17, N—((S)-1-((3P)-3-(4-chloro-3-(methylsulfonamido)-1-(2,2,2-trifluoroethyl)-1H-indazol-7-yl)-7-((2S,6R)-2,6-dimethylmorpholino)-4-oxo-3,4-dihydropyrido[2,3-d]pyrimidin-2-yl)-2-(3,5-difluorophenyl)ethyl)-2-(3-cyclopropyl-1H-pyrazol-1-yl)acetamide]	240	> 500000
CC(C)n1ccc(CC(=O)N[C@@H](Cc2cc(F)cc(F)c2)c2nc3nc(N4C[C@@H](C)O[C@@H](C)C4)ccc3c(=O)n2-c2ccc(Cl)c3c(NS(C)(=O)=O)nn(C)c23)n1 (atropisomer, axis not shown; (P)) [Example 18, N—((S)-1-((3P)-3-(4-chloro-1-methyl-3-(methylsulfonamido)-1H-indazol-7-yl)-7-((2S,6R)-2,6-dimethylmorpholino)-4-oxo-3,4-dihydropyrido[2,3-d]pyrimidin-2-yl)-2-(3,5-difluorophenyl)ethyl)-2-(1-isopropyl-1H-pyrazol-3-yl)acetamide]	160	> 100000
Cn1nc(NS(C)(=O)=O)c2c(Cl)ccc(-n3c([C@H](Cc4cc(F)cc(F)c4)NC(=O)Cn4nc(C(F)F)c5c4C(F)(F)[C@@H]4C[C@H]54)nc4nc(N5CCCOCC5)ccc4c3=O)c21 (atropisomer, axis not shown; (P)) [Example 22, N—((S)-1-((3P)-3-(4-chloro-1-methyl-3-(methylsulfonamido)-1H-indazol-7-yl)-7-(1,4-oxazepan-4-yl)-4-oxo-3,4-dihydropyrido[2,3-d]pyrimidin-2-yl)-2-(3,5-difluorophenyl)ethyl)-2-((3bS,4aR)-3-(difluoromethyl)-5,5-difluoro-3b,4,4a,5-tetrahydro-1H-cyclopropa[3,4]cyclopenta[1,2-c]pyrazol-1-yl)acetamide]	52	> 100000
Cn1nc(NS(C)(=O)=O)c2c(Cl)ccc(-n3c([C@H](Cc4cc(F)cc(F)c4)NC(=O)Cn4nc(C(F)F)c5c4C(F)(F)[C@@H]4C[C@H]54)nc4nc(N5CCOCC5)ccc4c3=O)c21 (atropisomer, axis not shown; (P)) [Example 23, N—((S)-1-((3P)-3-(4-chloro-1-methyl-3-(methylsulfonamido)-1H-indazol-7-yl)-7-morpholino-4-oxo-3,4-dihydropyrido[2,3-d]pyrimidin-2-yl)-2-(3,5-difluorophenyl)ethyl)-2-((3bS,4aR)-3-(difluoromethyl)-5,5-difluoro-3b,4,4a,5-tetrahydro-1H-cyclopropa[3,4]cyclopenta[1,2-c]pyrazol-1-yl)acetamide]	58	> 100000
Cn1nc(NS(C)(=O)=O)c2c(Cl)ccc(-n3c([C@H](Cc4cc(F)cc(F)c4)NC(=O)Cn4nc(C(F)F)c5c4C(F)(F)[C@@H]4C[C@H]54)nc4nc(NCCC(C)(C)F)ccc4c3=O)c21 (atropisomer, axis not shown; (P)) [Example 24, N—((S)-1-((3P)-3-(4-chloro-1-methyl-3-(methylsulfonamido)-1H-indazol-7-yl)-7-((3-fluoro-3-methylbutyl)amino)-4-oxo-3,4-dihydropyrido[2,3-d]pyrimidin-2-yl)-2-(3,5-difluorophenyl)ethyl)-2-((3bS,4aR)-3-(difluoromethyl)-5,5-difluoro-3b,4,4a,5-tetrahydro-1H-cyclopropa[3,4]cyclopenta[1,2-c]pyrazol-1-yl)acetamide]	40	> 100000
